What all share (assay): NCI tumour cell line growth inhibition, 48 h
The test system of test [1] is NCI/ADR-RES ovarian.
Test [2] concerns SNB-19 CNS.
In test [3] the test system is SF-295 CNS.
Test [4] deals with SF-539 CNS.
For test [5], the system named is RXF 393 renal.
Test [6] has as its system BT-549 breast.
Test [7] deals with UACC-257 melanoma.
Test [8] concerns KM12 colon.
The subject of test [9] is RPMI-8226 leukemia.
Test [10] relates to HL-60(TB) leukemia.

Where “and” joins values, the source holds several entries; their conditions need not be identical. Identical values can stand only once.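 Results reflect a 48-hour exposure of cells in 96-well plates to compound at five concentrations. GI50: concentration for 50% inhibition of growth. Definition used: TGI = concentration required for complete inhibition of growth.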 Bounds are passed on as bounds.

Here are results for eight compounds from PubChem BioAssay (NCI).

Consider `COc1ccc(CNCCCN2C(=O)c3ccc4c5c(ccc(c35)C2=O)C(=O)N(CCCNCc2ccc(OC)c(OC)c2OC)C4=O)c(OC)c1OC`, for which the GI50 in test [1] is 1010 nM; in test [2], 87.7 nM; in test [3] it was 119 nM; in test [4], 102 nM; in test [5], 82.3 nM; in test [6], 262 nM. For the same compound, the GI50 in test [7] was 92.1 nM; in test [8] it was 0.0792 µM; in [9], 145 nM. For the same compound, the TGI in [1] is 3.01 µM; in [2], 0.18 µM; in test [3], 331 nM; in test [4] it was 0.235 µM; in [5], 0.176 µM; in [6], 503 nM. The TGI in test [7] came out at 0.167 µM; in [8], 168 nM; in [9], 0.56 µM.

`CN[C@@H](Cc1cccc2ccccc12)C(=O)N[C@@H](CC(C)C)B(O)O`: the GI50 is 41.2 nM in test [1]; 35.6 nM in test [2]; 23.1 nM in [3]; 4.73 nM in test [4]; 18 nM in test [5]; 16.9 nM and 13.1 nM in test [7]. The GI50 was 0.0203 µM in test [8] and 5.47 nM in test [9]. Further, the TGI in test [1] is 0.197 µM; in test [3], 82.8 nM and 15.6 nM; in test [4], 0.0167 µM; in test [5] it was 0.0353 µM; in test [6] it was 24.3 nM; in [7], 0.0337 µM and 0.04 µM. The TGI in test [8] is 44.4 nM and 19.3 nM; in test [9], 0.0439 µM.

`O=C(c1ccccc1)C1OC1C(=O)c1ccccc1` (centres undefined): the GI50 is 1880 nM in test [1]; 14100 nM in test [2]; 5030 nM in [3]; 3770 nM in test [4]; 2370 nM in [5]; 3280 nM in [6]. The GI50 is 5750 nM in [7], 3.51 µM in [8] and 3340 nM in [9]. For the same compound, the TGI in test [1] was > 100 µM; in test [2], > 100 µM; in test [3] it was 37300 nM; in [4] it was 12.6 µM; in test [5], 10.2 µM; in test [6], 14200 nM. In addition, the TGI in test [7] was 29.6 µM; in [8], 11900 nM; in [9], 11.6 µM.

On to `O=C1c2cc3c(cc2-c2c1c1ccc(F)cc1c(=O)n2C[C@H](O)[C@H](O)[C@H](O)CO)OCO3`, for which the GI50 was 207 nM in test [1]; 92.7 nM in [2]; 148 nM in test [10]; 62.4 nM in test [3]; 193 nM in test [5]; 149 nM in [6]. Also, in test [9], the GI50 was 505 nM. Besides, the TGI in test [1] is 2.14 µM; in [2], > 100 µM; in test [10] it was 0.749 µM; in test [3], 513 nM; in test [5], 0.502 µM; in test [6], 1050 nM. In [9], this compound yielded a TGI of 5.6 µM.

Turning to `NNc1nc2ccccc2o1`, the TGI in [1] is > 100 µM; in test [2] it was > 100 µM; in test [10], > 100 µM; in test [4], > 100 µM; in test [5], > 100 µM; in [6], > 100000 nM. The TGI is > 100 µM in test [7], > 100000 nM in test [8] and > 100 µM in [9].

For the compound `Cc1nc2ccccc2c(/C=C/c2ccccc2)c1C(=O)/C=C/c1ccc(C(F)(F)F)cc1`, the GI50 in test [1] is 2190 nM; in test [2], 1650 nM; in test [10], 1700 nM; in [3], 1670 nM; in test [4], 1820 nM; in [5], 1410 nM. Also, the GI50 was 1250 nM in test [6], 1960 nM in [7] and 394 nM in [9]. The TGI in test [1] came to 7.19 µM; in [2], 3.05 µM; in test [10] it was 5.28 µM; in [3], 3100 nM; in [4], 3.27 µM; in test [5] it was 3.1 µM. Further, the TGI in test [6] is 2890 nM; in test [7], 4.25 µM; in [9] it was 3.85 µM.

Regarding `COc1cc2c(c(OC)c1OC)-c1c(c3ccc([N+](=O)[O-])cc3c(=O)n1CCCBr)C2=O`, the GI50 in test [1] was 70600 nM; in test [2], 57400 nM; in test [3], 24200 nM; in test [4] it was 4500 nM; in [5] it was 24400 nM; in test [6] it was 35800 nM. Moreover, the GI50 was > 100000 nM in test [7], 60.7 µM in test [8] and 35000 nM in test [9]. The TGI in test [1] was > 100 µM; in test [2], > 100 µM; in test [3] it was > 100000 nM; in [4] it was 17.9 µM; in test [5], > 100 µM; in test [6] it was 97500 nM. The TGI in [7] was > 100 µM; in test [8], > 100000 nM; in test [9], > 100 µM.

Take `CC[C@]12C=CCN3CC[C@@]4(c5ccc(OC)cc5N(C)[C@H]4[C@@](O)(C(=O)OC)[C@@H]1OC(=O)CCC(=O)O[C@H]1CC[C@H]4[C@@H]5CC[C@H]6CC(=O)CC[C@]6(C)[C@H]5CC[C@]14C)[C@@H]32`: the GI50 in test [1] is 2910 nM; in [2], 4850 nM; in test [10] it was 2120 nM; in test [3], 2020 nM; in test [4], 3890 nM; in [5], 2310 nM. Also, the values for the GI50 in test [6], in test [7] and in [8] were 2210 nM, 3910 nM and 3.16 µM, respectively. The TGI in test [1] was > 100 µM; in test [2], > 100 µM; in test [10], 5.36 µM; in test [3], > 100000 nM; in test [4] it was > 100 µM; in test [5] it was 6.73 µM. Further, the TGI in test [6] was > 100000 nM; in [7], 16.6 µM; in test [8] it was > 100000 nM.
